Patent US9957253B2, “Triaminopyrimidine compounds useful for preventing or treating malaria” (MMV MEDICINES FOR MALARIA VENTURE, priority 2014, dated 2018)
Where a name gives a salt, the structure may show the parent alone. Read-outs that look alike come from different tables or passages of the source.

Tests used:
[1] = test system: chloroquine sensitive NF54 strain of P. falciparum; assay: In vitro antiplasmodial activity (SYBR I), NF54 strain; assay type: cell-based, Plasmodium falciparum
Procedure: (§1) Measuring In Vitro Antiplasmodial Activity
(§2) The test samples were tested in duplicate on two separate occasions against chloroquine sensitive NF54 (MRA-1000, MR4, ATCC, Manassas, Va.) and chloroquine-resistant K1 strains of P. falciparum. A modified method of Trager and Jensen was employed to maintain continuous in vitro cultures of asexual blood stages of P. falciparum (Trageret al., 1976, Science, 193, 673-675). Quantitative assessment of antiplasmodial activity in vitro was determined using the SYBR I method as described earlier (Johnson et al., 2007, Antimicrob. Agents Chemother., 51, 1926-1933).
(§3) The percent inhibition with respect to the drug-free control was plotted against the logarithm of drug concentration. The growth inhibition curves were fitted by nonlinear regression using the sigmoidal dose-response (variable slope) formula to yield the concentration-response curves. […] Chloroquine diphosphate (CQ) (Sigma), artesunate (Sigma), and pyrimethamine were used as reference drugs in all experiments.

[2] = test system: chloroquine-resistant K1 strain of P. falciparum; assay: In vitro antiplasmodial activity (SYBR I), K1 strain; assay type: cell-based, Plasmodium falciparum
Procedure: as §1, §2, §3

[3] = test system: P. falciparum field isolates; assay: Ex vivo drug susceptibility (schizont maturation) of P. falciparum field isolates; assay type: cell-based; conditions: Plasmodium falciparum, read-out: P. falciparum IC50
Procedure: (§4) Further, compounds of the invention (Examples 2 and 13) were also tested against field isolates of falciparum and vivax malaria, along with three control antimalarials as described in the protocol below.
(§5) Ex Vivo Activity of Examples 2 and 13 Against Drug Resistant P. falciparum and P. Vivax Field Isolates
(§6) Standard antimalarial drugs chloroquine (CQ), amodiaquine (AQ), piperaquine (PIP), mefloquine (MFQ), and artesunate (AS) and compounds of the invention were prepared as 1 mg/mL stock solutions in H2O or dimethyl sulfoxide (DMSO) according to the manufacturers' instructions. Drug plates were pre-dosed by diluting the compounds in 50% Methanol followed by lyophilisation and stored at 4° C.
(§7) Plasmodium isolates were collected from patients attending malaria clinics in Timika (Papua, Indonesia), a region endemic for multi-drug-resistant strains of P. vivax and P. falciparum. Patients with symptomatic malaria presenting to an outpatient facility were recruited into the study if singly infected with P. falciparum or P. vivax, with a parasitaemia of between 2,000 μl-1 and 80,000 μl-1, and the majority (>80%) of parasites at ring stage of development. Venous blood (5 mL) was collected by venipuncture and after removal of host white blood cells by using cellulose (Sigma-Aldrich, Australia) filtration, packed infected red blood cells (iRBCs) were used for the ex vivo drug susceptibility assay.
(§8) Drug susceptibility of P. vivax and P. falciparum isolates was measured using a protocol modified from the WHO microtest as described previously (Marfurt et al., 2011, Antimicrob Agents Chemother., 55(9):4461). Two hundred μL of a 2% haematocrit Blood Media Mixture (BMM), consisting of RPMI 1640 medium plus 10% AB+ human serum (P. falciparum) or McCoy's 5 A medium plus 20% AB+ human serum (P. vivax), was added to each well of pre-dosed drug plates containing 11 serial concentrations (2-fold dilutions) of the antimalarials (maximum concentration shown in brackets) CQ (2,992 nM), AQ (158 nM), PIP (1,029 nM), MFQ (338 nM), AS (49 nM), and a compound of the invention (2,146 nM). A candle jar was used to mature the parasites at 37.0° C. for 35-56 hours.
(§9) Thick blood films made from each well were stained with 5% Giemsa solution for 30 minutes and examined microscopically. The number of schizonts per 200 asexual stage parasites was determined for each drug concentration and normalised to the control well. The dose-response data were analysed using nonlinear regression analysis (WinNonLn 4.1, Pharsight Corporation) and the IC50 value derived using an inhibitory sigmoid Emax model. […] Drug plate quality was assured by running schizont maturation assays (two independent experiments) with the chloroquine-resistant strain K1 and the chloroquine-sensitive strain FC27.
(§10) For microscopy slide reading QC, two randomly selected drugs per isolate were read by a second microscopist. […] If necessary, discrepant results were resolved by a third reading by an expert microscopist.

P. vivax field isolates = assay: Ex vivo drug susceptibility (schizont maturation) of P. vivax field isolates; assay type: cell-based; conditions: Plasmodium vivax, read-out: P. vivax IC50
Procedure: as §4, §5, §6, §7, §8, §9, §10

[4] = Identification of metabolites of Example 13, rat liver microsomes or hepatocytes; assay type: in vitro ADME; conditions: metabolite of Example 13
Procedure: (§11) Identification of In Vivo Metabolites
(§12) Metabolites of Example 13 were identified both in vitro and in vivo using the following models: • In vitro: The compound of Example 13 was incubated with human (HLM) or rat (RLM) liver microsomes (1 mg/ml protein concentration in 100 mM phosphate buffer, pH 7.4) at a final concentration of 10 μM in the presence of 2 mM NADPH. The reactive intermediates were trapped by including 2 mM glutathione (GSH) or N-acetyl cysteine (NAC) in the reaction mix. • In vivo in bile duct cannulated rats: Example 13 was administered intravenously (IV) as a bolus through the jugular vein at a dose of 2 mg/kg or 4 mg/kg of body weight for control (n=3) or BDC rats (n=2), respectively. Blood samples were collected at 0.083, 0.25, 0.5, 1, 2, 4, 6, 8 and 24 h through the carotid artery, bile samples were collected at 0-2 h, 2-4 h, 4-6 h, 6-8 h and 8-24 h intervals and urine samples were collected at 0-8 h and 8-24 h intervals. The bile and urine samples were analyzed for the presence of parent and metabolites and blood samples were analyzed for the presence of parent.

[5] = Identification of metabolites of Example 13, human liver microsomes or hepatocytes; assay type: in vitro ADME; conditions: metabolite of Example 13
Procedure: as §11, §12

[6] = Identification of metabolites of Example 13, mouse liver microsomes or hepatocytes; assay type: in vitro ADME; conditions: metabolite of Example 13
Procedure: as §11, §12

[7] = Plasmodium falciparum, NF54, read-out: Pf IC50—NF54
[8] = Plasmodium falciparum, K1, read-out: Pf IC50—K1
[9] = Plasmodium falciparum, NF54 strain, chloroquine sensitive, read-out: Pf IC50—NF54
[10] = Plasmodium falciparum, K1 strain, chloroquine-resistant, read-out: Pf IC50—K1

CCc1cc(Nc2ncc(N3CCNC(C)C3)c(Nc3cc(C)n(C)n3)n2)nc(C)c1F (stereo in doubt) [Example 8, (R)—N4-(1,5-dimethyl-1H-pyrazol-3-yl)-N2-(4-ethyl-5-fluoro-6-methylpyridin-2-yl)-5-(3-methylpiperazin-1-yl)pyrimidine-2,4-diamine dihydrochloride]
IC50 [1, 7]: 35 nM | IC50 [2, 8]: 44 nM

C[C@H]1[C@H](OC(=O)CCC(=O)O)O[C@@H]2O[C@@]3(C)CC[C@H]4[C@H](C)CC[C@@H]1[C@@]24OO3 [Artesunate, artesunate]
IC50 [3]: 15.1 nM | IC50 (P. vivax field isolates): 4.79 nM

CCN(CC)CCCC(C)Nc1ccnc2cc(Cl)ccc12 (stereo not drawn) [Chloroquine, chloroquine, reference compound]
IC50 [3]: 60.8 nM | IC50 (P. vivax field isolates): 40.2 nM | IC50 [1, 7]: 11 nM | IC50 [2, 8]: > 150 nM

Cc1nc(Nc2ncc(N3CCN(C)CC3)c(Nc3cn(C)nn3)n2)cc(C2CC2)c1F [Example 1, N2-(4-cyclopropyl-5-fluoro-6-methylpyridin-2-yl)-N4-(1-methyl-1H-1,2,3-triazol-4-yl)-5-(4-methylpiperazin-1-yl)pyrimidine-2,4-diamine]
IC50 [1, 9]: 15 nM | IC50 [2, 10]: 24 nM

Cc1nc(Nc2ncc(N3CCN[C@H](C)C3)c(Nc3cc(C)n(C)n3)n2)cc(C2CC2)c1F [Example 2, (R)—N2-(4-cyclopropyl-5-fluoro-6-methylpyridin-2-yl)-N4-(1,5-dimethyl-1H-pyrazol-3-yl)-5-(3-methylpiperazin-1-yl)pyrimidine-2,4-diamine dihydrochloride]
IC50 [3]: 63.6 nM | IC50 (P. vivax field isolates): 81 nM | IC50 [1, 7]: 14 nM | IC50 [2, 8]: 19 nM | Presence of proposed metabolite (N-demethylation) in liver microsomes or hepatocytes [4]: ✓ | Presence of proposed metabolite (N-demethylation) in liver microsomes or hepatocytes [5]: ✓ | Presence of proposed metabolite (N-demethylation) in liver microsomes or hepatocytes [6]: ✓

CCn1nc(Nc2nc(Nc3cc(C4CC4)c(F)c(C)n3)ncc2N2CCN[C@H](C)C2)cc1C [Example 3, (R)—N2-(4-cyclopropyl-5-fluoro-6-methylpyridin-2-yl)-N4-(1-ethyl-5-methyl-1H-pyrazol-3-yl)-5-(3-methylpiperazin-1-yl)pyrimidine-2,4-diamine dihydrochloride]
IC50 [1, 7]: 17 nM | IC50 [2, 8]: 14 nM

Cc1nc(Nc2ncc(N3CCN[C@H](C)C3)c(Nc3cn(C)nn3)n2)cc(C2CC2)c1F [Example 4, (R)—N2-(4-cyclopropyl-5-fluoro-6-methylpyridin-2-yl)-N4-(1-methyl-1H-1,2,3-triazol-4-yl)-5-(3-methylpiperazin-1-yl)pyrimidine-2,4-diamine dihydrochloride]
IC50 [1, 7]: 33 nM | IC50 [2, 8]: 51 nM

Cc1nc(Nc2ncc(N3CCN[C@H](C)C3)c(Nc3cc(C)n(C)n3)n2)cc(C2CC2)c1Cl [Example 5, (R)—N2-(5-chloro-4-cyclopropyl-6-methylpyridin-2-yl)-N4-(1,5-dimethyl-1H-pyrazol-3-yl)-5-(3-methylpiperazin-1-yl)pyrimidine-2,4-diamine dihydrochloride]
IC50 [1, 7]: 23 nM | IC50 [2, 8]: 48 nM

Cc1nc(Nc2ncc(N3CCN[C@H](C)C3)c(Nc3cc(C)n(C)n3)n2)cc(C2CC2)c1C#N [Example 6, (R)-4-cyclopropyl-6-((4-((1,5-dimethyl-1H-pyrazol-3-yl)amino)-5-(3-methylpiperazin-1-yl)pyrimidin-2-yl)amino)-2-methylnicotinonitrile dihydrochloride]
IC50 [1, 7]: 31 nM | IC50 [2, 8]: 45 nM

Cc1nc(Nc2ncc(N3CCN[C@H](C)C3)c(Nc3cc(C)n(C)n3)n2)cc(C2CCC2)c1F [Example 9, (R)—N2-(4-cyclobutyl-5-fluoro-6-methylpyridin-2-yl)-N4-(1,5-dimethyl-1H-pyrazol-3-yl)-5-(3-methylpiperazin-1-yl)pyrimidine-2,4-diamine dihydrochloride]
IC50 [1, 7]: 25 nM | IC50 [2, 8]: 48 nM

Cc1nc(Nc2ncc(N3CCN[C@H](C)C3)c(Nc3cn(C)nn3)n2)cc(C2CC2)c1Cl [Example 11, (R)—N2-(5-chloro-4-cyclopropyl-6-methylpyridin-2-yl)-N4-(1-methyl-1H-1,2,3-triazol-4-yl)-5-(3-methylpiperazin-1-yl)pyrimidine-2,4-diamine dihydrochloride]
IC50 [1, 7]: 30 nM | IC50 [2, 8]: 50 nM

Cc1nc(Nc2ncc(N3CCN(C)[C@H](C)C3)c(Nc3cn(C)nn3)n2)cc(C2CC2)c1F [Example 14, (R)—N2-(4-cyclopropyl-5-fluoro-6-methylpyridin-2-yl)-5-(3,4-dimethylpiperazin-1-yl)-N4-(1-methyl-1H-1,2,3-triazol-4-yl)pyrimidine-2,4-diamine]
IC50 [1, 9]: 33 nM | IC50 [2, 10]: 69 nM

Cc1nc(Nc2ncc(N3CCN(C)[C@H](C)C3)c(Nc3cnn(C)n3)n2)cc(C2CC2)c1F [Example 15, (R)—N2-(4-cyclopropyl-5-fluoro-6-methylpyridin-2-yl)-5-(3,4-dimethylpiperazin-1-yl)-N4-(2-methyl-2H-1,2,3-triazol-4-yl)pyrimidine-2,4-diamine]
IC50 [1, 9]: 17 nM | IC50 [2, 10]: 37 nM

Clc1ccc2c(N3CCN(CCCN4CCN(c5ccnc6cc(Cl)ccc56)CC4)CC3)ccnc2c1 [Piperaquine, piperaquine]
IC50 [3]: 16.9 nM | IC50 (P. vivax field isolates): 5.9 nM

CCc1nc(N)nc(N)c1-c1ccc(Cl)cc1 [Pyrimethamine, pyrimethamine, reference compound]
IC50 [1, 9]: 64 nM | IC50 [2, 10]: 7900 nM

(R)—N2-(5-Fluoro-4-cyclopropyl-6-methylpyridin-2-yl)-N4-(2-methyl-2H-1,2,3-triazol-4-yl)-5-(3-methylpiperazin-1-yl)pyrimidine-2,4-diamine dihydochloride [Example 12]
IC50 ([1]; NF54 strain, chloroquine sensitive, read-out: Pf IC50—NF54): 39 nM | IC50 ([2]; K1 strain, chloroquine-resistant, read-out: Pf IC50—K1): 82 nM
